The record followed here is BindingDB's records for doi:10.1021/ja057257n (University of Pennsylvania, 2006).

The target in one test is Carbonic anhydrase 1 (Homo sapiens, UniProt P00915). Nature of the test: Competitive Displacement Binding Assay. As to conditions: pH 7; 25 °C. On the procedure: (§1) The dissociation constant of the hCA and inhibitor complex was determined by competitive displacement of a fixed concentration of dansylamide by increasing concentrations of the inhibitor using Perkin-Elmer lambda 50-B spectrofluorometer. […] The dissociation constant of the enzyme-inhibitor complex was determined by monitoring the decrease in the fluorescence of the enzyme-dansylamide complex as a function of the increasing concentration of the inhibitor.
Chain of Carbonic anhydrase 1 (P00915 whole entry): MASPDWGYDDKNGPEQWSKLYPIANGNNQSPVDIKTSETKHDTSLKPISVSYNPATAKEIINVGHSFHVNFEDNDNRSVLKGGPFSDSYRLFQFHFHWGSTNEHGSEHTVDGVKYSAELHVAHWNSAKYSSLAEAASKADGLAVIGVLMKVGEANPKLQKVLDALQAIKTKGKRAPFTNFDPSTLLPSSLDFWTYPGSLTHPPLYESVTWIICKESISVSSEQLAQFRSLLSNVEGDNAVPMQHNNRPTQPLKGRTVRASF

For the next test, the target named is Carbonic anhydrase 2 (Homo sapiens, UniProt P00918). Nature of the test: Competitive Displacement Binding Assay. The following applies: pH 7; 25 °C. How it is done:
as §1

Take `NS(=O)(=O)c1ccc(CCNC(=O)c2ccc(CN(CC(=O)O)CC(=O)O)cc2)cc1` [copper(2+) ion 2-[(carboxylatomethyl)[(4-{[2-(4-sulfamoylphenyl)ethyl]carbamoyl}phenyl)methyl]amino]acetate]: the Kd at Carbonic anhydrase 1 was determined as 200 nM; at Carbonic anhydrase 2, 235 nM.
